The text below walks through data of ChEMBL document CHEMBL1799932, “Antimalarial pyrido[1,2-a]benzimidazoles” (J Med Chem, 2011).

Active and inactive are the calls of the source. No cut-off for these calls is given here.

For data set [1], the system named is Plasmodium falciparum. Briefly: Antimalarial activity against Plasmodium falciparum GHA. The format is functional, organism-based.
In data set [2] the test system is Plasmodium falciparum. Briefly: Antimalarial activity against Plasmodium falciparum W2. In kind it is functional, organism-based.
In data set [3] the test system is Plasmodium falciparum. Briefly: microbe, parasite or virus in culture. The conditions noted are these: K1.
Description: Antimalarial activity against Plasmodium falciparum K1
Data set [4] relates to Plasmodium berghei. Briefly: Antimalarial activity against GFP-transfected Plasmodium berghei strain ANKA infected in NMRI mouse assessed as reduction in parasitemia at 50 mg/kg, po administered as single dose measured on day 2 by FACS analysis. The arrangement: scale not given: the % may be the effect or the level left. In kind it is functional. In general terms: A flow cytometer gives signals particle by particle.

Data set [5] is described as follows: Metabolic stability in mouse liver microsomes assessed as intrinsic clearance per mg protein after 60 mins by LC-MS analysis. The format is ADME, Microsome.
Data set [6] in a line: Metabolic stability in human liver microsomes assessed as intrinsic clearance per mg protein after 60 mins by LC-MS analysis. In kind it is ADME, Microsome. (Liver microsomes are a subcellular fraction often used to study metabolism.)
Data set [7] is described as follows: Metabolic stability in rat liver microsomes assessed as intrinsic clearance per mg protein after 60 mins by LC-MS analysis. In kind it is ADME, Microsome.
Data set [8] concerns Rattus norvegicus. Briefly: Tmax in fasted Sprague-Dawley rat assessed as 1-(2-Ethylaminoethylamino)-3-[4-(trifluoromethyl)phenyl]- pyrido[1,2-a]benzimidazole-4-carbonitrile level at 20 mg/kg, po after 48 hrs by LC-MS analysis. In kind it is ADME, organism-based. The arrangement: dose 20 mg/kg, route oral. As to conditions: in vivo.
In data set [9] the test system is Rattus norvegicus. Briefly: AUC (0 to tlast) in fasted Sprague-Dawley rat assessed as 1-(2-Ethylaminoethylamino)-3-[4-(trifluoromethyl)phenyl]- pyrido[1,2-a]benzimidazole-4-carbonitrile level at 20 mg/kg, po after 48 hrs by LC-MS analysis. As to conditions: in vivo. Also noted: time < 48 hr, dose 20 mg/kg, route oral. In kind it is ADME, organism-based, Plasma.

Data set [10] concerns Rattus norvegicus. Briefly: AUC (0 to tlast) in fasted Sprague-Dawley rat assessed as 1-(2-Ethylaminoethylamino)-3-[4-(trifluoromethyl)phenyl]- pyrido[1,2-a]benzimidazole-4-carbonitrile level at 5 mg/kg, iv after 48 hrs by LC-MS analysis. The format is ADME, organism-based, Plasma. Also noted: time < 48 hr, dose 5 mg/kg, route intravenous. The conditions noted are these: in vivo.

Data set [11] deals with Rattus norvegicus. Briefly: Cmax in fasted Sprague-Dawley rat assessed as 1-(2-Ethylaminoethylamino)-3-[4-(trifluoromethyl)phenyl]- pyrido[1,2-a]benzimidazole-4-carbonitrile level at 20 mg/kg, po after 48 hrs by LC-MS analysis. The arrangement: dose 20 mg/kg, route oral. The format is ADME, organism-based. The conditions noted are these: in vivo.
Data set [12] deals with Rattus norvegicus. Briefly: Drug excretion in fasted Sprague-Dawley rat urine assessed as 1-(2-Ethylaminoethylamino)-3-[4-(trifluoromethyl)phenyl]- pyrido[1,2-a]benzimidazole-4-carbonitrile level at 20 mg/kg, po after 48 hrs by LC-MS analysis. In kind it is ADME, organism-based. Also noted: dose 20 mg/kg, route oral. The conditions noted are these: in vivo.
Data set [13] concerns Plasma. Briefly: Plasma protein binding in human assessed as 1-(2-Ethylaminoethylamino)-3-[4-(trifluoromethyl)phenyl]-pyrido[1,2-a]benzimidazole-4-carbonitrile at 5 mg/kg, iv after 48 hrs by LC-MS analysis. In kind it is ADME, organism-based. Also noted: dose 5 mg/kg, route intravenous. As to conditions: in vivo.
For data set [14], the system named is Plasma. Briefly: Plasma protein binding in mouse assessed as 1-(2-Ethylaminoethylamino)-3-[4-(trifluoromethyl)phenyl]-pyrido[1,2-a]benzimidazole-4-carbonitrile at 5 mg/kg, iv after 48 hrs by LC-MS analysis. In kind it is ADME, organism-based. Also noted: dose 5 mg/kg, route intravenous. The conditions noted are these: in vivo.
The test system of data set [15] is Plasmodium berghei. Briefly: Antimalarial activity against GFP-transfected Plasmodium berghei strain ANKA infected in NMRI mouse assessed as reduction in parasitemia at 50 mg/kg, po administered as single dose measured on day 3 by FACS analysis. The format is functional. Also noted: scale not given: the % may be the effect or the level left.
The subject of data set [16] is Plasmodium berghei. Briefly: Antimalarial activity against GFP-transfected Plasmodium berghei strain ANKA infected in NMRI mouse assessed as reduction in parasitemia at 50 mg/kg, po administered as single dose measured on day 4 by FACS analysis. The format is functional. Also noted: scale not given: the % may be the effect or the level left.
Data set [17] concerns Plasmodium berghei. Briefly: Antimalarial activity against GFP-transfected Plasmodium berghei strain ANKA infected in NMRI mouse assessed as reduction in parasitemia at 50 mg/kg, po administered as single dose measured on day 5 by FACS analysis. Also noted: scale not given: the % may be the effect or the level left. In kind it is functional.
Data set [18] has as its system Plasmodium berghei. Briefly: Antimalarial activity against GFP-transfected Plasmodium berghei strain ANKA infected in NMRI mouse assessed as reduction in parasitemia at 25 mg/kg, po administered as single dose measured on day 2 by FACS analysis. The format is functional. Also noted: scale not given: the % may be the effect or the level left.
The subject of data set [19] is Plasmodium berghei. Briefly: Antimalarial activity against GFP-transfected Plasmodium berghei strain ANKA infected in NMRI mouse assessed as reduction in parasitemia at 25 mg/kg, po administered as single dose measured on day 3 by FACS analysis. The arrangement: scale not given: the % may be the effect or the level left. In kind it is functional.
Data set [20] relates to Plasmodium berghei. Briefly: Antimalarial activity against GFP-transfected Plasmodium berghei strain ANKA infected in NMRI mouse assessed as reduction in parasitemia at 25 mg/kg, po administered as single dose measured on day 4 by FACS analysis. The format is functional. The arrangement: scale not given: the % may be the effect or the level left.
The subject of data set [21] is Plasmodium berghei. Briefly: Antimalarial activity against GFP-transfected Plasmodium berghei strain ANKA infected in NMRI mouse assessed as reduction in parasitemia at 25 mg/kg, po administered as single dose measured on day 5 by FACS analysis. The format is functional. Also noted: scale not given: the % may be the effect or the level left.
A short description of data set [22]: Metabolic stability in human liver microsomes assessed as degradation half life after 60 mins by LC-MS analysis. The format is ADME, Microsome.
The nature of data set [23]: Metabolic stability in rat liver microsomes assessed as degradation half life after 60 mins by LC-MS analysis. In kind it is ADME, Microsome.
Data set [24] in a line: Metabolic stability in mouse liver microsomes assessed as degradation half life after 60 mins by LC-MS analysis. In kind it is ADME, Microsome.
The subject of data set [25] is Plasmodium berghei. Briefly: Antimalarial activity against GFP-transfected Plasmodium berghei strain ANKA infected in NMRI mouse assessed as reduction in parasitemia at 3 mg/kg, po administered as multiple dose for 4 days measured 24 hrs after last treatment. The format is functional. The arrangement: scale not given: the % may be the effect or the level left.
Data set [26] concerns Plasmodium berghei. Briefly: Antimalarial activity against GFP-transfected Plasmodium berghei strain ANKA infected in NMRI mouse assessed as reduction in parasitemia at 6 mg/kg, po administered as single dose for 4 days measured 24 hrs after last treatment. Also noted: scale not given: the % may be the effect or the level left. In kind it is functional.
Data set [27] deals with Plasmodium berghei. Briefly: Antimalarial activity against GFP-transfected Plasmodium berghei strain ANKA infected in NMRI mouse assessed as reduction in parasitemia at 12.5 mg/kg, po administered as multiple dose for 4 days measured 24 hrs after last treatment. In kind it is functional. The arrangement: scale not given: the % may be the effect or the level left.
Data set [28] relates to Plasmodium berghei. Briefly: Antimalarial activity against GFP-transfected Plasmodium berghei strain ANKA infected in NMRI mouse assessed as reduction in parasitemia at 25 mg/kg, po administered as single dose for 4 days measured 24 hrs after last treatment. In kind it is functional. The arrangement: scale not given: the % may be the effect or the level left.
Data set [29] relates to Plasmodium berghei. Briefly: Antimalarial activity against GFP-transfected Plasmodium berghei strain ANKA infected in NMRI mouse assessed as reduction in parasitemia at 50 mg/kg, po administered as multiple dose for 4 days measured 24 hrs after last treatment. The arrangement: scale not given: the % may be the effect or the level left. In kind it is functional.
Data set [30] concerns Plasmodium berghei. Briefly: Antimalarial activity against GFP-transfected Plasmodium berghei strain ANKA infected in NMRI mouse assessed as increase in median survival time at 3 mg/kg, po administered as single dose for 4 days measured 24 hrs after last treatment (reference value: 6.5 days ). The format is functional.
In data set [31] the test system is Plasmodium berghei. Briefly: Antimalarial activity against GFP-transfected Plasmodium berghei strain ANKA infected in NMRI mouse assessed as increase in median survival time at 6 mg/kg, po administered as multiple dose for 4 days measured 24 hrs after last treatment (reference value: 6.5 days ). The format is functional.
Data set [32] deals with Plasmodium berghei. Briefly: Antimalarial activity against GFP-transfected Plasmodium berghei strain ANKA infected in NMRI mouse assessed as increase in median survival time at 12.5 mg/kg, po administered as multiple dose for 4 days measured 24 hrs after last treatment (reference value: 6.5 days ). In kind it is functional.
The subject of data set [33] is Plasmodium berghei. Briefly: Antimalarial activity against GFP-transfected Plasmodium berghei strain ANKA infected in NMRI mouse assessed as increase in median survival time at 25 mg/kg, po administered as multiple dose for 4 days measured 24 hrs after last treatment (reference value: 6.5 days ). The format is functional.
In data set [34] the test system is Plasmodium berghei. Briefly: Antimalarial activity against GFP-transfected Plasmodium berghei strain ANKA infected in NMRI mouse assessed as increase in median survival time at 50 mg/kg, po administered as multiple dose for 4 days measured 24 hrs after last treatment (reference value: 6.5 days ). In kind it is functional.
Data set [35] concerns Rattus norvegicus. Briefly: Apparent half life in fasted Sprague-Dawley rat assessed as 1-(2-Ethylaminoethylamino)-3-[4-(trifluoromethyl)phenyl]- pyrido[1,2-a]benzimidazole-4-carbonitrile level at 5 mg/kg, iv after 48 hrs by LC-MS analysis. Also noted: dose 5 mg/kg, route intravenous. The format is ADME, organism-based. The conditions noted are these: in vivo.
Data set [36] relates to Rattus norvegicus. Briefly: Drug excretion in fasted Sprague-Dawley rat urine assessed as 1-(2-Ethylaminoethylamino)-3-[4-(trifluoromethyl)phenyl]- pyrido[1,2-a]benzimidazole-4-carbonitrile level at 5 mg/kg, iv after 48 hrs by LC-MS analysis. The format is ADME, organism-based. Also noted: dose 5 mg/kg, route intravenous. The conditions noted are these: in vivo.
Data set [37] concerns Plasmodium berghei. Briefly: Antimalarial activity against GFP-transfected Plasmodium berghei strain ANKA infected in NMRI mouse assessed as increase in mean survival time at 25 mg/kg, po administered as single dose (reference value: 5 days ).
The test system of data set [38] is Plasmodium berghei. Briefly: Antimalarial activity against GFP-transfected Plasmodium berghei strain ANKA infected in NMRI mouse assessed as increase in mean survival time at 50 mg/kg, po administered as single dose (reference value: 5 days ).
Data set [39] has as its system Rattus norvegicus. Briefly: Apparent volume of distribution in fasted Sprague-Dawley rat plasma assessed as 1-(2-Ethylaminoethylamino)-3-[4-(trifluoromethyl)phenyl]- pyrido[1,2-a]benzimidazole-4-carbonitrile level at 5 mg/kg, iv after 48 hrs by LC-MS analysis. The conditions noted are these: in vivo.
Data set [40] concerns Plasmodium berghei. Briefly: Antimalarial activity against GFP-transfected Plasmodium berghei strain ANKA infected in NMRI mouse assessed as complete cure from parasite infection at 3 to 50 mg/kg, po administered as multiple dose for 4 days measured 24 hrs after last treatment. In kind it is functional, organism-based.

As a reminder, the IC50 is the concentration that inhibits the measured activity by half. Turning to `N#Cc1c(-c2ccccc2)cc(N2CCNCC2)n2c1nc1ccccc12`, the IC50 in the data set with Plasmodium falciparum [1], with Plasmodium falciparum [2] and in the data set on Plasmodium falciparum [3] was 170 nM each time.
The microsomal CLint is a measure of how fast metabolising enzymes remove a compound, apart from limits set by blood flow. For orientation: Tmax means the time at which the peak concentration occurs. By Cmax is commonly meant the peak of the concentration-time curve. The half-life is how long it takes for the measured level to halve. Take `CCNCCNc1cc(-c2ccc(C(F)(F)F)cc2)c(C#N)c2nc3ccccc3n12.Cl.Cl`: the Activity stood at 30.78% in the data set with Plasmodium berghei [4]; 0.21% in the data set with Rattus norvegicus [12]; 50.24% with Plasmodium berghei [15]; 71.22% with Plasmodium berghei [16]; 79.79% with Plasmodium berghei [17]; 23.51% in the data set with Plasmodium berghei [18]. In addition, the Activity in the data set on Plasmodium berghei [19] amounted to 55.45%; with Plasmodium berghei [20] it was 62.25%; with Plasmodium berghei [21] it was 68.92%; with Plasmodium berghei [25], 0%; in the data set on Plasmodium berghei [26], 38.35%; in the data set on Plasmodium berghei [27], 80.73%. Besides, the Activity in the data set with Plasmodium berghei [28] was 95.72%; with Plasmodium berghei [29] it was 95.56%; in the data set with Plasmodium berghei [31], 7 days; in the data set on Plasmodium berghei [32], 14 days; in the data set on Plasmodium berghei [33], 14.3 days; with Plasmodium berghei [34], 14 days. Further, in the data set with Rattus norvegicus [36], the Activity came to 1.13%. Besides, the microsomal CLint in data set [5] stood at 5.4 µL/min/mg; in data set [6], 12.7 µL/min/mg; in [7] it was 6.1 µL/min/mg. Further, the time of peak concentration (Tmax) in the data set on Rattus norvegicus [8] came out at 16 h. The AUClast was 2076 µM·min in the data set with Rattus norvegicus [9] and 1000 µM·min in the data set with Rattus norvegicus [10]. In the data set with Rattus norvegicus [11], the peak concentration (Cmax) came out at 950 nM. The values for the PPB with Plasma [13] and in the data set with Plasma [14] were 98.3% and 95.3%, respectively. Also, the half-life was found to be 2.28 h in data set [22], 4.74 h in data set [23] and 5.35 h in [24]. The values for the MSD in the data set with Plasmodium berghei [30], in the data set on Plasmodium berghei [37] and with Plasmodium berghei [38] were 4 days, 13.3 days and 12.7 days, respectively. For the same molecule, the “t1/2(app)” value with Rattus norvegicus [35] was determined as 16.3 h. Further, in the data set with Rattus norvegicus [39], the Vz turned out to be 7.5 L/kg.
Take `CCNCCNc1cc(-c2ccc(C(F)(F)F)cc2)c(C#N)c2nc3ccccc3n12`: the result in the data set on Plasmodium berghei [40] was inactive.
